The assay relates to spindle assembly checkpoint. Briefly: SAC-Formation - Nocodazole-Induced Assay. Type of assay: cell-based. The following applies: Homo sapiens; HeLa cells, nocodazole 0.1 μg/ml, 24 h, phosphorylated histone H3 on serine 10. The source says: The spindle assembly checkpoint assures the proper segregation of chromosomes during mitosis. Upon entry into mitosis, chromosomes begin to condensate which is accompanied by the phosphorylation of histone H3 on serine 10. Dephosphorylation of histone H3 on serine 10 begins in anaphase and ends at early telophase. Accordingly, phosphorylation of histone H3 on serine 10 can be utilized as a marker of cells in mitosis. Nocodazole is a microtubule destabilizing substance. Paclitaxel is a microtubule stabilizing compound. Thus, nocodazole as well as paclitaxel interfere with microtubule dynamics and mobilize the spindle assembly checkpoint. […] The mitotic breakthrough can be detected by the decrease of cells with phosphorylation of histone H3 on serine 10. This decline is used as a marker to determine the capability of compounds of the present invention to induce a mitotic breakthrough. The typical morphological alteration of nuclei with a prematurely completed mitosis after SAC-inhibition can be monitored via image analysis routines supporting those findings.
The nocodazole and paclitaxel variations were used to focus on compounds that are capable of inhibiting a SAC induced by both microtubule destabilization as well as microtubule stabilization. When SAC inducing agents and compounds are given simultaneously, inhibitors that effectively block the SAC during formation or abrogation are identified. When cells are incubated with a SAC inducing agent and the SAC interfering compound is given after a defined time, inhibitors are identified that effectively block SAC abrogation.
Cultivated cells of the human cervical tumor cell line HeLa (ATCC CCL-2) were plated at a density of 1000 cells/well in a 1536-well microtiter plate in 2 μl PAA Ham's F12 Medium supplemented with 1% (v/v) glutamine, 1% (v/v) penicillin, 1% (v/v) streptomycin and 10% (v/v) fetal calf serum. After incubation overnight at 37° C., 10 μl/well nocodazole at a final concentration of 0.1 μg/ml were added to cells. Test compounds solubilized in dimethyl sulfoxide (DMSO) were added at various concentrations (0 μM, as well as in the range of 0.005 μM-20 μM; the final concentration of the solvent DMSO was 0.5% (v/v)). Cells were incubated for 24 h at 37° C. in the presence of test compounds in combination with nocodazole. Thereafter, cells were fixed in 4% (v/v) paraformaldehyde in phosphate buffered saline (PBS) at 4° C. overnight then permeabilized in 0.1% (v/v) Triton X™ 100 in PBS at room temperature for 20 min and blocked in 0.5% (v/v) bovine serum albumin (BSA) in PBS at room temperature for 15 min. After washing with PBS, 5 μl/well antibody solution (anti-phospho-histone H3 clone 3H10, FITC; Millipore, Cat #16-222; 1:1000 dilution) was added to cells, which were incubated for 2 h at room temperature. Afterwards, cells were washed with PBS and 5 μl/well solution of HOECHST 33342 dye (5 μg/ml) was added to cells and cells were incubated 15 min at room temperature in the dark. Cells were washed twice with PBS then covered with PBS and stored at 4° C. until analysis. Images were acquired with a PERKIN ELMER OPERA™ High-Content Analysis reader. Images were analyzed with image analysis software MetaXpress™ from Molecular devices utilizing the Mitotic Index application module. In this assay both labels HOECHST 33342 and phosphorylated Histone H3 on serine 10 were measured. HOECHST 33342 labels the DNA and is used to count the cell number. The staining of phosphorylated Histone H3 on serine 10 determines the number of mitotic cells. […] Otherwise cells were arrested at G2/M phase of the cell cycle progression. The raw assay data were further analyzed by four-parametric hill equation using Genedata's Assay Analyzer and Condoseo software.

pIC50: −log10 of the molar value. Some results are limits rather than exact numbers.

One may read the pIC50 as the IC50 on a negative log10 scale, so that one unit is a factor of ten.

In the case of `Cc1nsc(Nc2ccc(C(N)=O)cn2)c1C(=O)Nc1ccc(Cl)c(F)c1` [Example 151], the pIC50 is 5.77.

On to `CCc1ccccc1NC(=O)c1c(C)nsc1Nc1cnc(C(=O)OC)cn1` [Example 146], for which the pIC50 is 5.85.

Take `CCc1ccccc1NC(=O)c1c(C)nsc1Nc1cnc(C(N)=O)cn1` [Example 161]: the pIC50 was 4.82.

Regarding `COc1ccc(NC(=O)c2c(C)nsc2Nc2nc3c(C(F)(F)F)ccnc3s2)cn1` [Example 123], the pIC50 is 6.66.

As for `CCOc1ccc(NC(=O)c2c(C)nsc2Nc2cc(C#N)ccn2)cn1` [Example 143], the pIC50 was less than 4.70.

As to `CCNC(=O)c1cnc(Nc2snc(C)c2C(=O)Nc2ccc(OC)nc2)s1` [Example 154], the pIC50 is 5.37.

With `CCc1cnc(Nc2snc(C)c2C(=O)Nc2ccccc2CC)nc1` [Example 136], the pIC50 was 5.17.

Regarding `CCc1ccccc1NC(=O)c1c(C)nsc1Nc1cccc(OC)n1` [Example 148], the pIC50 is less than 4.70.

Turning to `COc1ccnc(Nc2snc(C)c2C(=O)Nc2ccc(F)c(F)c2)c1` [Example 125], the pIC50 is less than 4.70.

With `COc1ccc(NC(=O)c2c(C)nsc2Nc2ccc(C#N)cn2)cc1F` [Example 162], the pIC50 is less than 4.70.

Regarding `COC(=O)c1ccnc(Nc2snc(C)c2C(=O)Nc2ccc(OC)nc2)c1` [Example 140], the pIC50 was less than 4.70.

As for `COc1ccc(NC(=O)c2c(C)nsc2Nc2nc(C(N)=O)cs2)cn1` [Example 160], the negative logarithm of the IC50 (pIC50) is 5.59.

`CCc1ccccc1NC(=O)c1c(C)nsc1Nc1ncnc(C)c1C` [Example 159]: the pIC50 is 4.82.

As to `CCc1ccccc1NC(=O)c1c(C)nsc1Nc1cc(C(=O)OC)ccn1` [Example 149], the pIC50 is 5.39.

Take `CNc1cncc(Nc2snc(C)c2C(=O)Nc2ccc(F)c(F)c2)n1` [Example 132]: the pIC50 was 4.85.

Regarding `COc1ccc(NC(=O)c2c(C)nsc2Nc2ncc(C(=O)N3CCOCC3)s2)cn1` [Example 128], the pIC50 was 4.89.

On to `Cc1nsc(Nc2nc(C(=O)N(C)C)cs2)c1C(=O)Nc1ccc(F)c(F)c1` [Example 131], for which the pIC50 was 4.96.

As for `COc1ccc(NC(=O)c2c(C)nsc2Nc2ncc(C(N)=O)s2)cn1` [Example 152], the pIC50 was less than 4.70.

As to `CCc1ccccc1NC(=O)c1c(C)nsc1Nc1ccc(C(=O)OC)cn1` [Example 145], the pIC50 is 5.14.

Turning to `CCc1ccccc1NC(=O)c1c(C)nsc1Nc1cc(OC)ccn1` [Example 134], the pIC50 was less than 4.70.

Turning to `Cc1nsc(Nc2ccc(C(=O)N(C)C)nn2)c1C(=O)Nc1ccc(F)c(F)c1` [Example 153], the pIC50 is 5.82.

With `COc1ccc(NC(=O)c2c(C)nsc2Nc2nc3ncc(C(F)(F)F)cc3s2)cn1` [Example 124], the pIC50 is 4.74.

As for `CCOC(=O)c1cc(C)nc(Nc2snc(C)c2C(=O)Nc2ccccc2CC)c1` [Example 139], the pIC50 is less than 4.70.

`Cc1nsc(Nc2cncc(C(=O)N3CCN(C)CC3)n2)c1C(=O)Nc1ccc(F)c(F)c1` [Example 133]: the pIC50 was 4.82.

With `COC(=O)c1cnc(Nc2snc(C)c2C(=O)Nc2ccc(OC)nc2)o1` [Example 147], the pIC50 was 4.89.

Turning to `CCc1ccccc1NC(=O)c1c(C)nsc1Nc1nc(C)cc(C)n1` [Example 127], the pIC50 was less than 4.70.

In the case of `CCc1ccccc1NC(=O)c1c(C)nsc1Nc1ncccc1OC` [Example 144], the pIC50 is less than 4.70.

On to `CCc1ccccc1NC(=O)c1c(C)nsc1Nc1ncccn1` [Example 137], for which the negative logarithm of the IC50 (pIC50) is less than 4.70.

Take `Cc1nsc(Nc2cnccn2)c1C(=O)Nc1ccc(OC2CCCCC2)nc1` [Example 163]: the negative-log IC50 (pIC50) was 5.89.

`COc1ccc(NC(=O)c2c(C)nsc2Nc2ncc(C(=O)N(C)C)s2)cn1` [Example 155]: the pIC50 was 5.24.

As to `CCc1ccccc1NC(=O)c1c(C)nsc1Nc1ncc(OC)cn1` [Example 135], the negative-log IC50 (pIC50) is 4.80.

In the case of `CCOC(=O)c1cnc(Nc2snc(C)c2C(=O)Nc2ccc(OC)nc2)o1` [Example 150], the pIC50 is 4.80.

For the compound `COc1ccc(NC(=O)c2c(C)nsc2Nc2nc(-c3ccc(Cl)cc3)cs2)cn1` [Example 156], the pIC50 is 6.26.

With `COc1ccc(NC(=O)c2c(C)nsc2Nc2nc3cnccc3s2)cn1` [Example 129], the pIC50 was 4.85.

Take `CCc1ccccc1NC(=O)c1c(C)nsc1Nc1ccccn1` [Example 142]: the pIC50 was 4.85.

Consider `COc1ccc(Oc2ccc(NC(=O)c3c(C)nsc3Nc3ccc(C#N)cn3)cn2)cc1` [Example 157], for which the pIC50 was 5.55.

`CCc1ccccc1NC(=O)c1c(C)nsc1Nc1ncccc1C` [Example 141]: the pIC50 is 4.72.

On to `COc1ccc(NC(=O)c2c(C)nsc2Nc2ncc(C(=O)O)s2)cn1` [Example 126], for which the pIC50 is 4.72.

`CCc1ccccc1NC(=O)c1c(C)nsc1Nc1nccc2ccccc12` [Example 138]: the pIC50 is 4.77.

On to `COc1ccc(NC(=O)c2c(C)nsc2Nc2ncc(C#N)s2)cn1` [Example 158], for which the negative logarithm of the IC50 (pIC50) was 5.38.

With `Cc1nsc(Nc2cc(C(=O)N(C)C)ccn2)c1C(=O)Nc1ccc(F)c(F)c1` [Example 130], the pIC50 was less than 4.70.

For the origin of these results see patent US9682995B2, “Amino-substituted isothiazoles” (BAYER PHARMA AKTIENGESELLSCHAFT, priority 2013, dated 2017).
